Data set [1] can be described thus: Similar reaction run in the absence of enzyme (toluene / pH 7 buffer). In kind it is physicochemical. The note with it: for hydrolysis in the absence of the enzyme: toluene / aqueous pH 7 buffer, time not stated; for hydrolysis in the absence of enzyme: after 3 days. How it is done:
Resveratrol tris(methyl carbonate) (100 mg; 0.249 mmol) was dissolved in 2 mL of toluene. […]
Hydroxytyrosol tris(methyl carbonate) (3, R=Me, 100 mg; 0.305 mmol) was dissolved in 2 mL of toluene. […]

Data set [2] deals with Novozym 435 (immobilized Candida Antarctica lipase B) (Moesziomyces antarcticus, UniProt P41365). Nature of the data set: Enzymatic hydrolysis with Novozym 435 in toluene / pH 7 buffer, HPLC analysis. The conditions noted are these: for enzymatic hydrolysis: lipase, biphasic mixture of toluene and aqueous pH 7 buffer, time not stated. On the procedure: Resveratrol tris(methyl carbonate) (100 mg; 0.249 mmol) was dissolved in 2 mL of toluene. 2 mL of pH 7 buffer was added followed by 100 mg of Novozym 435 (immobilized Candida Antarctica lipase B).
2 mL of pH 7 buffer was added followed by 100 mg of Novozym 435 (immobilized Candida Antarctica lipase B).
Resveratrol tripalmitate (100 mg; 0.11 mmol) was dissolved in 2 mL of toluene. 2 mL of pH 7 buffer was added followed by 100 mg of Novozym 435 (immobilized Candida Antarctica lipase B).
1 mL of pH 7 buffer was added followed by 100 mg of Novozym 435 (immobilized Candida Antarctica lipase B).
Hydroxytyrosol tris(methyl carbonate) (3, R=Me, 100 mg; 0.305 mmol) was dissolved in 2 mL of toluene. 2 mL of pH 7 buffer was added followed by 100 mg of Novozym 435 (immobilized Candida Antarctica lipase B).
Hydroxytyrosol trihexanoate containing 1.9% hydroxytyrosol by HPLC analysis (100 mg; 0.22 mmol) was dissolved in 2 mL of toluene. 2 mL of pH 7 buffer was added followed by 100 mg of Novozym 435 (immobilized Candida Antarctica lipase B).

The nature of data set [3]: Solubility in solvents. In kind it is physicochemical.
The mark [4] stands for this setting: 24 h, ambient temperature, equal volumes of both layers.
The mark [5] stands for this setting: 48 h, ambient temperature (trihexanoate contained 1.9% hydroxytyrosol at start).
Where [6] appears, read: 1 day, ambient temperature, top layer only.
Setting [7] is: 3 days, ambient temperature, toluene/pH 7 buffer.
Where [8] appears, read: 22 h, ambient temperature, toluene/pH 7 buffer, equal volumes of both layers.

Data on seven compounds can be found in patent US20120059056A1, “CARBONATE DERIVATIVES AS SKIN CARE” (EASTMAN CHEMICAL COMPANY, priority 2010, published 2012).

Chain of Novozym 435 (immobilized Candida Antarctica lipase B) (P41365 26-342): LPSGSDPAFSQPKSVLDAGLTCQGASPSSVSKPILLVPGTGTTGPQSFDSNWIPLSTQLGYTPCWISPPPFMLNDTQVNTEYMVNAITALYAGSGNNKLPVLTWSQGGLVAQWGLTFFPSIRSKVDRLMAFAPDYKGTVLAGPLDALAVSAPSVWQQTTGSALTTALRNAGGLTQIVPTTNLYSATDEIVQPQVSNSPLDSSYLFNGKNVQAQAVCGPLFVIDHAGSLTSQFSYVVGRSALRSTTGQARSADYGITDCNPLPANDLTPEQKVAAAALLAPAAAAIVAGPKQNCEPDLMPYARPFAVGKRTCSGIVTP

`COC(=O)OCCc1ccc(OC(=O)OC)c(OC(=O)OC)c1` [Hydroxytyrosol tris(methyl carbonate)]: the “hydrolysis to hydroxytyrosol in the absence of enzyme” value in data set [1] (after 2 days, toluene/pH 7 buffer) was “no detectable hydrolysis to hydroxytyrosol”. Moreover, in data set [2] (setting [4]), the “hydroxytyrosol by HPLC analysis” value stood at 74%; the “mono- and di-carbonates by HPLC analysis” value was 1.5%; the “unchanged hydroxytyrosol tris(methyl carbonate) by HPLC analysis” value is 17%. Besides, in data set [2] (48 h, ambient temperature), the “mono- and di-carbonates by HPLC analysis” value is on record as 5%; the “unchanged starting tris(methyl carbonate) or trihexanoate by HPLC analysis” value is recorded as 3%. For the same compound, the “hydroxytyrosol by HPLC analysis” value in data set [2] (setting [5]) came out at 92%.
Turning to `OCc1ccc(O)cc1` [4-hydroxybenzyl alcohol, 4-Hydroxybenzyl alcohol], the “solubility in toluene and water” value in data set [3] is “insolubility in both toluene and water”.
For `CCCCCC(=O)OCCc1ccc(OC(=O)CCCCC)c(OC(=O)CCCCC)c1` [Hydroxytyrosol trihexanoate, Hydroxytyrosol Trihexanoate, reference compound], in data set [2] (48 h, ambient temperature), the “3,4-di(hexanoyl)phenylethanol by HPLC analysis” value is recorded as 18.7% and the “unchanged starting tris(methyl carbonate) or trihexanoate by HPLC analysis” value is reported as 72.3%. Also, the “hydroxytyrosol by HPLC analysis” value in data set [2] (setting [5]) is on record as 2.5%.
With `CCCCOC(=O)Oc1ccc(/C=C/c2cc(OC(=O)OCCCC)cc(OC(=O)OCCCC)c2)cc1` [Resveratrol tris(butyl carbonate)], the “hydrolysis in the absence of the enzyme” value in data set [1] is reported as “no observed hydrolysis”. Besides, in data set [2] (setting [6]), the “resveratrol bis(butyl carbonate) by HPLC analysis” value came to 41% and the “resveratrol tris(butyl carbonate) remaining by HPLC analysis” value worked out at 59%. In data set [2] (setting [7]), the “resveratrol bis/di(alkyl carbonate) or dipalmitate by HPLC analysis” value stood at 41%, the “resveratrol by HPLC analysis” value is 35%, the “resveratrol mono(alkyl carbonate) by HPLC analysis” value worked out at 5% and the “unchanged starting tris(alkyl carbonate) or tripalmitate by HPLC analysis” value turned out to be 19%. For the same compound, the “enzymatic hydrolysis” value in data set [2] is “undergo hydrolysis of the carbonate to afford dicarbonates, monocarbonates, and the parent triphenol”.
As for “4-Hydroxybenzyl Alcohol bis(butyl carbonate)”, the “hydrolysis in the absence of enzyme” value in data set [1] (toluene/pH 7 buffer) is reported as “no detectable hydrolysis”.
`COC(=O)Oc1ccc(/C=C/c2cc(OC(=O)OC)cc(OC(=O)OC)c2)cc1` [Resveratrol tris(methyl carbonate)]: in data set [1] (toluene/pH 7 buffer), the “hydrolysis in the absence of enzyme” value is reported as “no detectable hydrolysis”. Moreover, in data set [1], the “hydrolysis in the absence of the enzyme” value is given as “no observed hydrolysis”. In addition, in data set [2] (setting [8]), the “resveratrol bis(methyl carbonate) by HPLC analysis” value turned out to be 15.8%, the “resveratrol by HPLC analysis” value amounted to 23.75%, the “resveratrol mono(methyl carbonate) by HPLC analysis” value worked out at 52.9% and the “resveratrol tris(methyl carbonate) remaining by HPLC analysis” value stood at 7.0%. Further, in data set [2] (setting [7]), the “resveratrol bis/di(alkyl carbonate) or dipalmitate by HPLC analysis” value came to 0.6%, the “resveratrol by HPLC analysis” value stood at 63.8%, the “resveratrol mono(alkyl carbonate) by HPLC analysis” value stood at 35.1% and the “unchanged starting tris(alkyl carbonate) or tripalmitate by HPLC analysis” value was “no detectable”. In data set [2], the “enzymatic hydrolysis” value is “undergo hydrolysis of the carbonate to afford dicarbonates, monocarbonates, and the parent triphenol”.
With `CCCCCCCCCCCCCCCC(=O)Oc1ccc(C=Cc2cc(OC(=O)CCCCCCCCCCCCCCC)cc(OC(=O)CCCCCCCCCCCCCCC)c2)cc1` [Resveratrol tripalmitate, Resveratrol Tripalmitate, reference compound], in data set [2] (setting [7]), the “extent of enzymatic hydrolysis” value is given as “minimal hydrolysis” and the “unchanged starting tris(alkyl carbonate) or tripalmitate by HPLC analysis” value was 89%. The “enzymatic hydrolysis” value in data set [2] is recorded as “minimal hydrolysis”.
